According to patent US5332733A, “Heterocyclically substituted piperazinoakylbenzoxazine and piperazinoalkylbenzothiazine compounds, processes for preparing them, and medicaments containing them” (Kali-Chemie Pharma GmbH, priority 1990, dated 1994):

How the values were obtained:
[1] = tested on: histamine-induced anaphylactoid cutaneous reaction; test: Inhibition of histamine-induced anaphylactoid cutaneous reaction in rats; type: in vivo, Sprague-Dawley rats; settings: Rattus norvegicus, 1 h, 2 × 10^-5 mole/kg per os, one hour before ovalbumin challenge
Experimental: (§1) 1. Determining Inhibition of Passive Cutaneous Anaphylaxis (PCA) and Histamine-Induced Anaphylactoid Cutaneous Reaction
(§2) The inhibition of the passive cutaneous anaphylaxis and of the anaphylactoid cutaneous reaction induced by histamine was determined as follows:
(§3) Sprague-Dawley rats having a body weight of 150-180 g were injected intradermally in one flank with 50 μl of a 1:75 dilution of the IgE-rich ovalbumin antiserum in physiological saline solution to passively sensitize them to ovalbumin.
(§4) 24 hours after sensitization a solution of 8.25 mg/kg of ovalbumin and 26.4 mg/kg of a blue dye (Evans's Blue) was administered to the rats intravenously according to Martin et al. to trigger passive cutaneous anaphylaxis.
To determine the histamine-induced anaphylactoid skin reaction, the animals are injected intradermally in the flank opposite to the antiserum administration with 50 μl of a physiological saline solution containing 0.8 mg/ml histamine directly before the intravenous injection of the solution containing the ovalbumin and the blue dye.
(§5) On the day of the experiment the test substances were dissolved in distilled water which contained 1 vol. % dimethylformamide and 1 vol. % of Tween™ 20 (=polyoxyethylene (20) sorbitan monolaurate). One hour before administration of the ovalbumin challenge, each animal was orally administered 2×10^-5 mole/kg of test substance in 0.5 ml of solution. For comparison purposes a control group received only the solvent.
(§6) The edematous anaphylactic (PCA) and anaphylactoid (histamine-induced) reactions caused by the stimulation of the intravenous ovalbumin injection, which manifested themselves by edema formation, swelling and exudation of blue dye, were evaluated 30 minutes after their initiation by the intravenous ovalbumin injection. This was done by visually determining the extent to which the blue dye emerged at the sites of edema formation. The percentage inhibition of anaphylactic and anaphylactoid reactions induced by the test substances in comparison with the reactions of the control animals not treated with any test substance was determined using comparison scales.
(§7) The results obtained using compounds of formula I according to the foregoing test methods are shown in the following Table A. The example numbers given for the compounds of formula I relate to the subsequent preparative examples.

[2] = tested on: PAF-induced aggregation of rabbit blood platelets; test: Anti-PAF activity in vitro, PAF-induced platelet aggregation; type: cell-based, rabbit (New Zealand hybrids); settings: Oryctolagus cuniculus, test substance 10^-5 mole/l, pH 7.4
Text: 4. Determination of Anti-PAF Activity In Vitro
PAF (=Platelet Activating Factor) is a phospholipid mediator which has many effects. Activation of platelet aggregation induces protracted broncho-contraction and hyper-reactivity of the air paths.
In this test the effect of the test substances on platelet aggregation induced by adding PAF to a suspension of platelets obtained from rabbit blood is investigated using the method described by Mikashima et al. (Jap. J. Pharmacol. 44 (1987) 387-391).
A suspension of platelets obtained from rabbit blood containing 4×10^9 platelets/ml in a modified Tyrode buffer solution (=Tyrode solution with 1.3 mM/l CaCl2 and 2.5 g/l gelatine added) adjusted to pH 7.4 was used. Tyrode solution is an aqueous solution containing 136.9 mmoles NaCl, 2.68 mmoles KCl, 2.31 mmoles CaCl2, 1.0 mmole MgCl2, 11.9 mmoles NaHCO3, 1.45 mmoles NaH2 PO4 and 5.55 mmoles glucose per liter. The platelets were obtained from 10 ml blood samples from each of three rabbits (New Zealand hybrids, body weight 3-4 kg). For this the blood samples were treated with ethylenediamine tetraacetic acid and washed according to the method of Artley et al. (Brit. J. Hematol. 19 (1970), 7-17). A platelet-rich plasma was then initially separated by centrifuging (20 minutes at 400×g). The blood platelets were separated from the plasma by recentrifuging for 15 minutes at 1,400×g. The platelets remaining as sediment after centrifuging were resuspended in a Tyrode buffer solution (but without calcium). 0.4 mmole of lysine acetylsalicylate was then added, and after 15 minutes the platelets were sedimented again. The sediment was resuspended in the aforementioned modified Tyrode buffer solution, and the number of platelets in the resulting suspension was adjusted to the desired content.
A 40×10^-9 molar PAF solution was used as a reagent. This solution was made from a 1.8×10^-3 molar stock solution in chloroform. For this purpose a 10 μl sample of the stock solution was evaporated to dryness and redissolved in 180 μl of the modified Tyrode solution to which 0.25% of lipid-free bovine serum albumin had been added. From this 10^-5 molar working solutions were then prepared and stored frozen. Samples of these solutions were appropriately diluted for the tests.
To carry out the test 50 μl of the platelet suspension and 10 μl of a 40×10^-5 molar solution of the compound being investigated were added with stirring (1,000 rpm) to 330 μl of the modified Tyrode buffer solution in an aggregation tube provided with a small magnetic stirrer. This corresponds to a final test substance concentration of 10^-5 mole/l. After 90 seconds preincubation time, 10 μl of the PAF preparation were added. The aggregation occurring in the aggregation tubes was measured over 4-5 minutes with the aid of a computerized aggregometer.
The aggregation which occurred in test tubes containing only platelet suspension was evaluated as 0%, whereas the aggregation which occurred in test tubes containing platelet suspension and PAF preparation was evaluated as 100%. The aggregation which still occurred during the inhibition of the PAF induced platelet aggregation due to the addition of the test substances was measured, and the resulting aggregation inhibition was calculated therefrom in %.

[3] = tested on: passive cutaneous anaphylaxis (PCA); test: Inhibition of passive cutaneous anaphylaxis (PCA) in rats; type: in vivo, Sprague-Dawley rats; settings: Rattus norvegicus, 1 h, 2 × 10^-5 mole/kg per os, one hour before ovalbumin challenge
Experimental: as §1
The PCA reaction is carried out following the methods described by Goose et al. (J. N. Immunology 16 (1969), 749) and by Martin et al. (Arch. Pharmacol. 316 (1981), 186).
The IgE-rich ovalbumin antiserum used in the test was obtained from immunized Brown-Norway rats. The were immunized with an intraperitoneal injection of a mixture of 100 μg of ovalbumin with a Bordetella pertussis suspension (Vaxicoq™, Manufactured by Institute Merieux, containing 5×10^9 organisms and 1.25 mg Al(OH)3). After 20 days the animals were re-immunized with a further intraperitoneal injection of a solution of 10 μg ovalbumin in 0.5 ml physiological saline solution. After a further four days the blood was removed from the animals and centrifuged. The resulting antiserum was stored at -20° C. until use.
as §2, §3, §4, §5, §6, §7

mice = settings: mouse, in vivo, 1440 min
Experimental: 2. Determination of Minimum Toxic Dose
Maximum doses of 300 mg/kg of the test substance were administered orally to male mice weighing 20-25 g. The animals were observed carefully for 3 hours for toxicity symptoms. In addition, all symptoms and deaths were recorded over a period of 24 hours after administration. Associated symptoms were also observed and recorded. If death or severe toxic symptoms were observed, additional mice were administered increasingly lower doses. The lowest dose which produced death or severe toxic symptoms is given in the following Table B as the minimum toxic dose.

5-lipoxygenase = target: T1, 5-lipoxygenase (Mus musculus, UniProt P48999); test: In vitro 5-lipoxygenase inhibition, release of LTC4 from zymosan-stimulated peritoneal macrophages; type: cell-based; settings: zymosan-stimulated mouse peritoneal macrophage cells, 10^-5 mole/l
T1 construct: A cell suspension containing peritoneal cells from male mice 8-10 weeks old was obtained in a known manner; endogenous in cells; host or cells: mouse peritoneal macrophages (primary, adherent)
T1 sequence (P48999 1-674): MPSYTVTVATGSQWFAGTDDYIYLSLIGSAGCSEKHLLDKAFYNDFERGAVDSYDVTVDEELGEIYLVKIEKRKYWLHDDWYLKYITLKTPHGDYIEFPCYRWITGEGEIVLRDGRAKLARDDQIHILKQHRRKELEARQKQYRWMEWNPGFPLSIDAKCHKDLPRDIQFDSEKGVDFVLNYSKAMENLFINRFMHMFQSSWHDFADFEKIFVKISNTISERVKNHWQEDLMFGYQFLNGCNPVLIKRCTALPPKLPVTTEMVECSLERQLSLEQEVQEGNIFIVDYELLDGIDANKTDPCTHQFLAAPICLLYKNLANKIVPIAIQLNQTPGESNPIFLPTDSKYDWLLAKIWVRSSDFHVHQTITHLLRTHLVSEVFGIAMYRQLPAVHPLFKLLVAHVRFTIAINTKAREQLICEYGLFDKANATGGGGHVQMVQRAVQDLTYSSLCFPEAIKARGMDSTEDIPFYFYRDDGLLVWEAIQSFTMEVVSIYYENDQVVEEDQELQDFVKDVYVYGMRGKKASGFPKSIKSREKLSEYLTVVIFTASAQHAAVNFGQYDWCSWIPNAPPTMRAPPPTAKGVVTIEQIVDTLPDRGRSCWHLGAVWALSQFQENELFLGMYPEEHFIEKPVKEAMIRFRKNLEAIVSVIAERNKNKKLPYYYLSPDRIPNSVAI
Text: (§8) 5. In Vitro Determination of Cyclooxygenase Inhibition And 5-lipoxygenase Inhibition.
(§9) After a cell is activated, arachidonic acid contained in cell membranes is metabolized in two ways. Leucotrienes, inter alia leucotriene C4, are formed due to the action of the enzyme 5-lipoxygenase (=5-LO), and prostanoids are formed due to the action of the enzyme cyclooxygenase (=CO). In in vitro systems these metabolites are secreted from the cell.
(§10) To evaluate the cyclooxygenase-inhibiting and 5-lipoxygenase-inhibiting properties of the test substances, their inhibitory activity on the biosynthesis of the arachidonic acid derivatives leucotriene C4 (=LTC4) and 6-keto-prostaglandin F1α (=6-keto-PGF1α) was determined in vitro on mouse peritoneal macrophage cells. For this purpose the LTC4 and 6-keto-PGF1α contents of a mouse peritoneal macrophage cell culture medium were determined by zymosan stimulation as described by Scott et al. (J. Exp. Med. 152 (1980), 324-335) and by Fradin et al., (Prostaglandins, 33 (1987), 579-589).
(§11) A cell suspension containing peritoneal cells from male mice 8-10 weeks old was obtained in a known manner. A solution marketed under the designation RPMI 1640 (Manufactured by Gibco) was used as the cell culture medium, to which heparin (10 international units/ml) and antibiotics were added according to the procedure of Bonney et al. (Biochem. J. 176 (1978) 422-433). The cell suspension was adjusted to a cell concentration of 10^6 cells per ml and distributed uniformly on titer dishes containing 24 1-ml titer cells (wells). These were kept for two hours in a humidified incubator filled with air enriched with 7% CO2. Cells not adhering to the titer well walls were then removed by washing. The remaining macrophage cells adhering to the walls were incubated for about 12 hours in a suspension medium to which 0.1% of bovine serum albumin (BSA=Bovine Serum Albumin) was added. The suspension medium was then replaced by a Hanks salt solution (=Hanks Balanced Salt Solution=HBSS) with 10 mmoles of HEPES (=hydroxyethylpiperazinoethanesulfonic acid) to which a 0.1% strength solution of the test substances in aqueous, 1% strength dimethylformamide or only the solvent had been added. After 15 minutes the arachidonic acid metabolism was stimulated by adding […] of zymosan (=glycoprotein mixture isolated from cell walls of beer yeast, Saccharomyces cerevisiae, Manufactured by Sigma Chemical Co., Munich) per titre cell. After 2 hours samples of the respective supernatant liquid in each cell were examined for their 6-keto-PGF1α and LTC4 contents by an enzyme immunoassay (=EIA). This EIA is carried out following the method of Pradelles et al. (Analytical Chem. 57 (1985), 1170-1173). The determination of LTC4 and the determination of 6-keto-PGF1α were each carried out on suitable dilutions of the samples (1:50 to 1:250 for the LTC4 determination and 1:250 to 1:1,250 for the 6-keto-PGF1α determination) in comparison with a comparative scale. To determine the inhibiting effect of a 10^-5 molar concentration of the compounds, the amounts of reference eicosanoid were determined, and the inhibiting effect was calculated therefrom in % inhibition compared to the measurements of the zymosan controls.

cyclooxygenase = target: T2, cyclooxygenase (Mus musculus, UniProt P22437); test: In vitro cyclooxygenase inhibition, release of 6-keto-PGF1α from zymosan-stimulated peritoneal macrophages; type: cell-based; settings: zymosan-stimulated mouse peritoneal macrophage cells, 10^-5 mole/l
T2 construct: A cell suspension containing peritoneal cells from male mice 8-10 weeks old was obtained in a known manner; endogenous in cells; host or cells: mouse peritoneal macrophages (primary, adherent)
T2 sequence (P22437 27-602): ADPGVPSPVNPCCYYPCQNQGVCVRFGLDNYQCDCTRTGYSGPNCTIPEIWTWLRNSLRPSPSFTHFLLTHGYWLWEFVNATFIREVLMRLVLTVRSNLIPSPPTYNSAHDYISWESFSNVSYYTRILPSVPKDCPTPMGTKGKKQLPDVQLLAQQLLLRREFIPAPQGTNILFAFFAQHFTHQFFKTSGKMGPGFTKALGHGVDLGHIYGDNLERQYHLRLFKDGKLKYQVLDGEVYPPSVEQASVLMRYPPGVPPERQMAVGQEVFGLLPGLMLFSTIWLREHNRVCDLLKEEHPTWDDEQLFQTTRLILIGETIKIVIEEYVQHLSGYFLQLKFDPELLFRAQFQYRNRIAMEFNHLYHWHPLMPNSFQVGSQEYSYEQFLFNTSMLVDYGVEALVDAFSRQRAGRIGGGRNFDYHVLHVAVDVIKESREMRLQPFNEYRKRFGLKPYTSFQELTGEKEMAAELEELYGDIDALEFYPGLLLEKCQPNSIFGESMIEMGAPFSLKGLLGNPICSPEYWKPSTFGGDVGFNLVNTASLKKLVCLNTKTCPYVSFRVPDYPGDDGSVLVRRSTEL
Text: as §8, §9, §10, §11

| Structure (SMILES) | inhibition in vivo at 20 µmol/kg [1] | inhibition at 10 µM [2] | inhibition in vivo at 20 µmol/kg [3] | Minimum toxic dose (mice) | % inhibition upon release of LTC4 (5-lipoxygenase) | % inhibition upon release of 6-keto-PGF1α (cyclooxygenase) |
| --- | --- | --- | --- | --- | --- | --- |
| Cc1ccnc(N2CCN(CCCC3Oc4ccc(C)cc4NC3=O)CC2)c1 (stereo not drawn) [Example 22] | 45% | 42% | 69% | 300 mg/kg | – | – |
| Cc1ccnc(N2CCN(C3Sc4ccccc4NC3=O)CC2)c1 (stereo not drawn) [Example 5, 2-[4-(4-methylpyridin-2-yl)-piperazin-1-yl]-2H-1,4-benzothiazine-3(4H)-one] | – | – | – | – | 72% | 36% |
